Results as given in patent US20120252852A1 (SANOFI, priority 2011, published 2012).

What was measured:
[1] = Level of impurities in dependency on pH and repeated autoclaving (1 mg/mL Otamixaban, citrate composition of Example 5, HPLC); format: physicochemical
Method: The appropriate pH value was adjusted by using sodium hydroxide solution (1 M sodium hydroxide) or diluted hydrochloric acid (1 M hydrochloric acid). […] [table] […] The mobile phase was filtered through a 1.5 μm filter. Typically, add 500 mL of mobile phase A to 500 mL of acetonitrile. Mix and degas. [table] [table]

[2] = tested on: prothrombin fragments 1+2; conditions: highest dose regimen; versus unfractionated heparin; cited from earlier work
[3] = Level of impurities in dependency on citric acid (22.8 mmol/L) and storage time (1 mg/mL, autoclaved once, 40° C. and 75% RH, HPLC); format: physicochemical
Method: The prepared vials were autoclaved once and were stored at 40° C. and 75% RH (relative humidity).

factor Xa = target: T1, factor Xa (Homo sapiens, UniProt P00742); conditions: patients with stable coronary artery disease taking usual comedication; cited from earlier work
T1 construct: host or cells: blood of patients (in vivo / ex vivo)

[4] = target: factor Xa assembled in the prothrombinase complex (Factor Xa, Factor Va, calcium and phospholipid) (Homo sapiens, UniProt P00742); conditions: cited from earlier work
[5] = Level of impurities in dependency on Otamixaban concentration and autoclaving (HPLC); format: physicochemical
Method: Liquid pharmaceutical compositions were prepared containing 1, 5 or 50 mg/mL
The appropriate pH value was adjusted by using sodium hydroxide solution (1 M sodium hydroxide) or diluted hydrochloric acid (1 M hydrochloric acid).

[6] = repeated autoclaving, pH 2.5 to 4.7

Sequence of factor Xa assembled in the prothrombinase complex (Factor Xa, Factor Va, calcium and phospholipid) (P00742 235-488 limits assumed): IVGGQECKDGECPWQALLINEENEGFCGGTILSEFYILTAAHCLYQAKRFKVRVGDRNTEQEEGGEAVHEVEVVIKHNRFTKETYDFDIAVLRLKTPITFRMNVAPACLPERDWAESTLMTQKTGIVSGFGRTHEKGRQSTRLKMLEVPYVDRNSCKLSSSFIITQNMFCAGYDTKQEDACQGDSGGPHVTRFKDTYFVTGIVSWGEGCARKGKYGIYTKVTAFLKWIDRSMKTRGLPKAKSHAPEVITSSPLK
Sequence of factor Xa assembled in the prothrombinase complex (Factor Xa, Factor Va, calcium and phospholipid) (P00742 41-179 limits assumed): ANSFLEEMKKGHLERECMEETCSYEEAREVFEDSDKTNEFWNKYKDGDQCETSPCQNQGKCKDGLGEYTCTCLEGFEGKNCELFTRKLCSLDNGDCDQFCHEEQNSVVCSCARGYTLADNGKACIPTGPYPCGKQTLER
Sequence of factor Xa assembled in the prothrombinase complex (Factor Xa, Factor Va, calcium and phospholipid) (P12259 29-737 partner limits assumed): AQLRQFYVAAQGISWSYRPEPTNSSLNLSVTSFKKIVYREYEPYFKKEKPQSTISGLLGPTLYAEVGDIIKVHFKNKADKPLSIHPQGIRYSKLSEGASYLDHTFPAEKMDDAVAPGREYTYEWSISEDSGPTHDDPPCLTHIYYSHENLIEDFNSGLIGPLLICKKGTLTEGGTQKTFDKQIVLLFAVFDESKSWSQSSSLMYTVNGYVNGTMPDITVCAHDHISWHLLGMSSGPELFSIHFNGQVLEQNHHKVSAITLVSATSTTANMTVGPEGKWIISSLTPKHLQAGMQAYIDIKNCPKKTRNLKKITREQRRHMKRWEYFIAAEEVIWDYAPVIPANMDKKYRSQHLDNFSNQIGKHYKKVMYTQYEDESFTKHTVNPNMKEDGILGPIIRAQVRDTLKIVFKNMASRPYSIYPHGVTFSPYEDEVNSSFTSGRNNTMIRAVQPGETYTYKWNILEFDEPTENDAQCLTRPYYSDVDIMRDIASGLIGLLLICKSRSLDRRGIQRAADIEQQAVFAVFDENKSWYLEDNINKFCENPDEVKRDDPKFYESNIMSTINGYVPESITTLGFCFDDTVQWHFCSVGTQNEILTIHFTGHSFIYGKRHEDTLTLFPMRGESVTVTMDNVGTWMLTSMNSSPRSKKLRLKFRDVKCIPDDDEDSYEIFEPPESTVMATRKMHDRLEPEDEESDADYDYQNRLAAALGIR
Sequence of factor Xa assembled in the prothrombinase complex (Factor Xa, Factor Va, calcium and phospholipid) (P12259 1574-2224 partner limits assumed): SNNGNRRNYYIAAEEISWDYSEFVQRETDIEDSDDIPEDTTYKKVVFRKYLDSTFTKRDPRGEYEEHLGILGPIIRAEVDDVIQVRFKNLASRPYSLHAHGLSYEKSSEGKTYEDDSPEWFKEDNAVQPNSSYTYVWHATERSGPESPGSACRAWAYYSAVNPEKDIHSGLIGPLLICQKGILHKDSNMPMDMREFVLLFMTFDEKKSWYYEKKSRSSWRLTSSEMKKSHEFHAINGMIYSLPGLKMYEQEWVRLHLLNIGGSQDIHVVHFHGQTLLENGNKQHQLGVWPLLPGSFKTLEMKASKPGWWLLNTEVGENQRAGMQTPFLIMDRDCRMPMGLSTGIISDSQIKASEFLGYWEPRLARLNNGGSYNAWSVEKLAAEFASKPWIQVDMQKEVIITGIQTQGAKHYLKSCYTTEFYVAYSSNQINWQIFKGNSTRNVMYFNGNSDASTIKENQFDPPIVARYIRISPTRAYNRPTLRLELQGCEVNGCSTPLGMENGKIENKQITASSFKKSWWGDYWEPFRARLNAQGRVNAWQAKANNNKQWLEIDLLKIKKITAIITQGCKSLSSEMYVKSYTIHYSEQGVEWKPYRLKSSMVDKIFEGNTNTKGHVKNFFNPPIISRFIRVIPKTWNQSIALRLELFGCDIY
T1 sequence (P00742 235-488 limits assumed): as the sequence (P00742 235-488 limits assumed) above
T1 sequence (P00742 41-179 limits assumed): as the sequence (P00742 41-179 limits assumed) above

Increase of Formula III (carbamoyl-benzyl butyric acid methyl ester) ([1]; pH 3.5, 3 autoclaving): 1.65%
Increase of Formula III (carbamoyl-benzyl butyric acid methyl ester) ([1]; pH 3.7 (first row), 0 autoclaving): 0.39%
Increase of Formula III (carbamoyl-benzyl butyric acid methyl ester) ([1]; pH 3.7 (first row), 1 autoclaving): 0.87%
Increase of Formula III (carbamoyl-benzyl butyric acid methyl ester) ([1]; pH 3.7 (first row), 2 autoclaving): 1.33%
Increase of Formula III (carbamoyl-benzyl butyric acid methyl ester) ([1]; pH 3.7 (first row), 3 autoclaving): 1.80%
Increase of Formula III (carbamoyl-benzyl butyric acid methyl ester) ([1]; pH 3.7 (second row), 0 autoclaving): 0.39%
Increase of Formula III (carbamoyl-benzyl butyric acid methyl ester) ([1]; pH 3.7 (second row), 1 autoclaving): 0.84%
Increase of Formula III (carbamoyl-benzyl butyric acid methyl ester) ([1]; pH 3.7 (second row), 2 autoclaving): 1.28%
Increase of Formula III (carbamoyl-benzyl butyric acid methyl ester) ([1]; pH 3.7 (second row), 3 autoclaving): 1.71%
Increase of Formula III (carbamoyl-benzyl butyric acid methyl ester) ([1]; pH 4.0, 0 autoclaving): 0.39%
Increase of Formula III (carbamoyl-benzyl butyric acid methyl ester) ([1]; pH 4.0, 1 autoclaving): 0.95%
Increase of Formula III (carbamoyl-benzyl butyric acid methyl ester) ([1]; pH 4.0, 2 autoclaving): 1.48%
Increase of Formula III (carbamoyl-benzyl butyric acid methyl ester) ([1]; pH 4.0, 3 autoclaving): 2.02%
Increase of Formula III (carbamoyl-benzyl butyric acid methyl ester) ([1]; pH 4.2, 0 autoclaving): 0.39%
Increase of Formula III (carbamoyl-benzyl butyric acid methyl ester) ([1]; pH 4.2, 1 autoclaving): 1.08%
Increase of Formula III (carbamoyl-benzyl butyric acid methyl ester) ([1]; pH 4.2, 2 autoclaving): 1.75%
Increase of Formula III (carbamoyl-benzyl butyric acid methyl ester) ([1]; pH 4.2, 3 autoclaving): 2.42%
Increase of Formula III (carbamoyl-benzyl butyric acid methyl ester) ([1]; pH 4.5, 0 autoclaving): 0.39%
Increase of Formula III (carbamoyl-benzyl butyric acid methyl ester) ([1]; pH 4.5, 1 autoclaving): 1.40%
Increase of Formula III (carbamoyl-benzyl butyric acid methyl ester) ([1]; pH 4.5, 2 autoclaving): 2.37%
Increase of Formula III (carbamoyl-benzyl butyric acid methyl ester) ([1]; pH 4.5, 3 autoclaving): 3.36%
Increase of Formula III (carbamoyl-benzyl butyric acid methyl ester) ([1]; pH 4.7, 0 autoclaving): 0.39%
Increase of Formula III (carbamoyl-benzyl butyric acid methyl ester) ([1]; pH 4.7, 1 autoclaving): 1.84%
Increase of Formula III (carbamoyl-benzyl butyric acid methyl ester) ([1]; pH 4.7, 2 autoclaving): 3.20%
Increase of Formula III (carbamoyl-benzyl butyric acid methyl ester) ([1]; pH 4.7, 3 autoclaving): 4.58%
Levels of Formula II (carbamimidoyl acid) versus pH [1, 6]: minimum at pH 4
Levels of Formula III (carbamoyl methyl ester) versus pH [1, 6]: lowest at the lowest pH
Total impurities ([3]; pH 3.0/3.1 (start/1 month), 1 month): 1.33%
Total impurities ([3]; pH 3.0/3.1 (start/1 month), start): 0.87%
Total impurities ([3]; pH 3.6/3.6 (start/1 month), 1 month): 1.06%
Total impurities ([3]; pH 3.6/3.6 (start/1 month), start): 0.83%
Total impurities ([3]; pH 4.0/4.1 (start/1 month), 1 month): 1.17%
Total impurities ([3]; pH 4.0/4.1 (start/1 month), start): 0.98%
Total impurities ([3]; pH 4.6/4.6 (start/1 month), 1 month): 1.75%
Total impurities ([3]; pH 4.6/4.6 (start/1 month), start): 1.51%
Total impurities ([3]; pH 5.1/5.1 (start/1 month), 1 month): 3.80%
Total impurities ([3]; pH 5.1/5.1 (start/1 month), start): 3.57%
Total impurities ([3]; pH 6.1/6.1 (start/1 month), 1 month): 28.16%
Total impurities ([3]; pH 6.1/6.1 (start/1 month), start): 27.12%
Increase of Formula III (carbamoyl-benzyl butyric acid methyl ester) ([5]; pH 4.2-4.3, 5 mg/mL, vial 5 mL, 20 min 123° C., 0 autoclaving): 0.2%
Increase of Formula III (carbamoyl-benzyl butyric acid methyl ester) ([5]; pH 4.2-4.3, 5 mg/mL, vial 5 mL, 20 min 123° C., 1 autoclaving): 0.9%
Increase of Formula III (carbamoyl-benzyl butyric acid methyl ester) ([5]; pH 4.2-4.3, 5 mg/mL, vial 5 mL, 20 min 123° C., 2 autoclaving): 1.7%
Increase of Formula III (carbamoyl-benzyl butyric acid methyl ester) ([5]; pH 4.2-4.3, 5 mg/mL, vial 5 mL, 20 min 123° C., 3 autoclaving): 2.5%
Increase of Formula III (carbamoyl-benzyl butyric acid methyl ester) ([5]; pH 4.2, 1 mg/mL, vial 50 mL, 20 min […] C., 0 autoclaving): 0.4%
Increase of Formula III (carbamoyl-benzyl butyric acid methyl ester) ([5]; pH 4.2, 1 mg/mL, vial 50 mL, 20 min […] C., 1 autoclaving): 1.3%
Increase of Formula III (carbamoyl-benzyl butyric acid methyl ester) ([5]; pH 4.2, 1 mg/mL, vial 50 mL, 20 min […] C., 2 autoclaving): 2.3%
Increase of Formula III (carbamoyl-benzyl butyric acid methyl ester) ([5]; pH 4.2, 1 mg/mL, vial 50 mL, 25 min 125° C., 0 autoclaving): 0.4%
Increase of Formula III (carbamoyl-benzyl butyric acid methyl ester) ([5]; pH 4.2, 1 mg/mL, vial 50 mL, 25 min 125° C., 1 autoclaving): 1.3%
Increase of Formula III (carbamoyl-benzyl butyric acid methyl ester) ([5]; pH 4.2, 5 mg/mL, vial 5 mL, 20 min 123° C., 0 autoclaving): 0.3%
Increase of Formula III (carbamoyl-benzyl butyric acid methyl ester) ([5]; pH 4.2, 5 mg/mL, vial 5 mL, 20 min 123° C., 1 autoclaving): 1.0%
Increase of Formula III (carbamoyl-benzyl butyric acid methyl ester) ([5]; pH 4.2, 5 mg/mL, vial 5 mL, 20 min 123° C., 2 autoclaving): 1.8%
Increase of Formula III (carbamoyl-benzyl butyric acid methyl ester) ([5]; pH 4.2, 5 mg/mL, vial 5 mL, 20 min 123° C., 3 autoclaving): 2.6%
Increase of Formula III (carbamoyl-benzyl butyric acid methyl ester) ([5]; pH 4.2, 5 mg/mL, vial 50 mL, 25 min 125° C., 0 autoclaving): 0.4%
Increase of Formula III (carbamoyl-benzyl butyric acid methyl ester) ([5]; pH 4.2, 5 mg/mL, vial 50 mL, 25 min 125° C., 1 autoclaving): 1.4%
Increase of Formula III (carbamoyl-benzyl butyric acid methyl ester) ([5]; pH 4.2, 50 mg/mL, vial 5 mL, 20 min 123° C., 0 autoclaving): 0.3%
Increase of Formula III (carbamoyl-benzyl butyric acid methyl ester) ([5]; pH 4.2, 50 mg/mL, vial 5 mL, 20 min 123° C., 1 autoclaving): 1.1%
Increase of Formula III (carbamoyl-benzyl butyric acid methyl ester) ([5]; pH 4.2, 50 mg/mL, vial 5 mL, 20 min 123° C., 2 autoclaving): 1.9%
Increase of Formula III (carbamoyl-benzyl butyric acid methyl ester) ([5]; pH 4.2, 50 mg/mL, vial 5 mL, 20 min 123° C., 3 autoclaving): 2.7%
Structure (SMILES): COC(=O)[C@H](Cc1cccc(C(=N)N)c1)[C@@H](C)NC(=O)c1ccc(-c2cc[n+]([O-])cc2)cc1 (mixture of isomers) [Otamixaban, Methyl (2R,3R)-2-{3-[amino(imino)methyl]benzyl}-3-{[4-(1-oxidopyridin-4-yl)benzoyl]amino}butanoate]
Reduction of prothrombin fragments 1+2 [2]: reduced prothrombin fragments 1+2 significantly more than unfractionated heparin
Factor Xa inhibition in patients (factor Xa): dose-dependent, rapid direct factor Xa inhibition
Inhibition of factor Xa assembled in the prothrombinase complex [4]: inhibited
